{"source": "paper PMC2990605", "about": "(British Journal of Cancer, 2010)", "assay": "Adverse events (CTCAEv3.0), worst grade per patient regardless of relation, and laboratory parameters", "type": "in vivo", "settings": "human, in vivo", "protocol": "Toxicity was evaluated according to common toxicity criteria for adverse events (CTCAEv3.0). The MTD was defined as the dose level(s) at which at least two out of six patients developed DLT.\nToxicity assessment, haematology and clinical biochemistry were performed at baseline and weekly during the study. Physical and ECOG performance status were recorded at baseline and before the next cycle."}
{"smiles": "CC(C)C[C@@H](C(=O)N[C@H](C(=O)OC1CCCC1)c1ccccc1)[C@H](O)C(=O)NO", "note": "[tosedostat]", "values": [{"measurement": "Cough, CTCAE grade 3, patients", "result": 0}, {"measurement": "Cough, CTCAE grade 4, patients", "result": 0}, {"measurement": "Cough, patients with events, %", "result": 41, "unit": "%"}, {"measurement": "Cystitis, CTCAE grade 1, patients", "result": 0}, {"measurement": "Cystitis, CTCAE grade 2, patients", "result": 1}, {"measurement": "Cystitis, CTCAE grade 3, patients", "result": 1}, {"measurement": "Cystitis, CTCAE grade 4, patients", "result": 0}, {"measurement": "Cystitis, patients with events, %", "result": 9, "unit": "%"}, {"measurement": "Dehydration, CTCAE grade 1, patients", "result": 0}, {"measurement": "Dehydration, CTCAE grade 2, patients", "result": 1}, {"measurement": "Dehydration, CTCAE grade 3, patients", "result": 1}, {"measurement": "Dehydration, CTCAE grade 4, patients", "result": 0}, {"measurement": "Dehydration, patients with events, %", "result": 9, "unit": "%"}, {"measurement": "Diabetes mellitus, CTCAE grade 1, patients", "result": 0}, {"measurement": "Diabetes mellitus, CTCAE grade 2, patients", "result": 0}, {"measurement": "Diabetes mellitus, CTCAE grade 3, patients", "result": 1}, {"measurement": "Diabetes mellitus, CTCAE grade 4, patients", "result": 0}, {"measurement": "Diabetes mellitus, patients with events, %", "result": 5, "unit": "%"}, {"measurement": "Diarrhoea, CTCAE grade 1, patients", "result": 5}, {"measurement": "Diarrhoea, CTCAE grade 2, patients", "result": 3}, {"measurement": "Diarrhoea, CTCAE grade 3, patients", "result": 0}, {"measurement": "Diarrhoea, CTCAE grade 4, patients", "result": 0}, {"measurement": "Diarrhoea, patients with events, %", "result": 36, "unit": "%"}, {"measurement": "Dizziness, CTCAE grade 1, patients", "result": 8}, {"measurement": "Dizziness, CTCAE grade 2, patients", "result": 1}, {"measurement": "Dizziness, CTCAE grade 3, patients", "result": 1}, {"measurement": "Dizziness, CTCAE grade 4, patients", "result": 0}, {"measurement": "Dizziness, patients with events, %", "result": 45, "unit": "%"}, {"measurement": "Drug hypersensitivity, CTCAE grade 1, patients", "result": 3}, {"measurement": "Drug hypersensitivity, CTCAE grade 2, patients", "result": 1}, {"measurement": "Drug hypersensitivity, CTCAE grade 3, patients", "result": 7}, {"measurement": "Drug hypersensitivity, CTCAE grade 4, patients", "result": 0}, {"measurement": "Drug hypersensitivity, patients with events, %", "result": 50, "unit": "%"}, {"measurement": "Dry skin, CTCAE grade 1, patients", "result": 3}, {"measurement": "Dry skin, CTCAE grade 2, patients", "result": 0}, {"measurement": "Dry skin, CTCAE grade 3, patients", "result": 1}, {"measurement": "Dry skin, CTCAE grade 4, patients", "result": 0}, {"measurement": "Dry skin, patients with events, %", "result": 18, "unit": "%"}, {"measurement": "Dyspnoea, CTCAE grade 1, patients", "result": 6}, {"measurement": "Dyspnoea, CTCAE grade 4, patients", "result": 0}, {"measurement": "Eosinophilic myocarditis, CTCAE grade 1, patients", "result": 0}, {"measurement": "Eosinophilic myocarditis, CTCAE grade 2, patients", "result": 0}, {"measurement": "Eosinophilic myocarditis, CTCAE grade 3, patients", "result": 0}, {"measurement": "Eosinophilic myocarditis, CTCAE grade 4, patients", "result": 0}, {"measurement": "Eosinophilic myocarditis, patients with events, %", "result": 5, "unit": "%"}, {"measurement": "Erythema, CTCAE grade 1, patients", "result": 1}, {"measurement": "Erythema, CTCAE grade 2, patients", "result": 0}, {"measurement": "Erythema, CTCAE grade 3, patients", "result": 1}, {"measurement": "Erythema, CTCAE grade 4, patients", "result": 0}, {"measurement": "Erythema, patients with events, %", "result": 9, "unit": "%"}, {"measurement": "Fatigue, CTCAE grade 1, patients", "result": 5}, {"measurement": "Fatigue, CTCAE grade 2, patients", "result": 10}, {"measurement": "Fatigue, CTCAE grade 3, patients", "result": 6}, {"measurement": "Fatigue, CTCAE grade 4, patients", "result": 0}, {"measurement": "Fatigue, patients with events, %", "result": 95, "unit": "%"}, {"measurement": "Gastric dilatation, CTCAE grade 1, patients", "result": 0}, {"measurement": "Gastric dilatation, CTCAE grade 2, patients", "result": 0}, {"measurement": "Gastric dilatation, CTCAE grade 3, patients", "result": 1}, {"measurement": "Gastric dilatation, CTCAE grade 4, patients", "result": 0}, {"measurement": "Gastric dilatation, patients with events, %", "result": 5, "unit": "%"}, {"measurement": "General physical health deterioration, CTCAE grade 1, patients", "result": 0}, {"measurement": "General physical health deterioration, CTCAE grade 2, patients", "result": 0}, {"measurement": "General physical health deterioration, CTCAE grade 3, patients", "result": 1}, {"measurement": "General physical health deterioration, CTCAE grade 4, patients", "result": 0}, {"measurement": "General physical health deterioration, patients with events, %", "result": 5, "unit": "%"}, {"measurement": "Hypercalcaemia, CTCAE grade 1, patients", "result": 0}, {"measurement": "Hypercalcaemia, CTCAE grade 2, patients", "result": 0}, {"measurement": "Hypercalcaemia, CTCAE grade 3, patients", "result": 1}, {"measurement": "Hypercalcaemia, CTCAE grade 4, patients", "result": 0}, {"measurement": "Hypercalcaemia, patients with events, %", "result": 5, "unit": "%"}, {"measurement": "Hyperglycaemia, CTCAE grade 1, patients", "result": 0}, {"measurement": "Hyperglycaemia, CTCAE grade 2, patients", "result": 1}, {"measurement": "Hyperglycaemia, CTCAE grade 3, patients", "result": 2}, {"measurement": "Hyperglycaemia, CTCAE grade 4, patients", "result": 0}, {"measurement": "Hyperglycaemia, patients with events, %", "result": 14, "unit": "%"}, {"measurement": "Hyperhidrosis, CTCAE grade 1, patients", "result": 2}, {"measurement": "Hyperhidrosis, CTCAE grade 2, patients", "result": 0}, {"measurement": "Hyperhidrosis, CTCAE grade 3, patients", "result": 1}, {"measurement": "Hyperhidrosis, CTCAE grade 4, patients", "result": 0}, {"measurement": "Hyperhidrosis, patients with events, %", "result": 14, "unit": "%"}, {"measurement": "Leukopenia, CTCAE grade 1, patients", "result": 0}, {"measurement": "Leukopenia, CTCAE grade 2, patients", "result": 1}, {"measurement": "Leukopenia, CTCAE grade 3, patients", "result": 3}, {"measurement": "Leukopenia, CTCAE grade 4, patients", "result": 0}, {"measurement": "Leukopenia, patients with events, %", "result": 18, "unit": "%"}, {"measurement": "Malaise, CTCAE grade 1, patients", "result": 1}, {"measurement": "Malaise, CTCAE grade 2, patients", "result": 1}, {"measurement": "Malaise, CTCAE grade 3, patients", "result": 1}, {"measurement": "Malaise, CTCAE grade 4, patients", "result": 0}, {"measurement": "Malaise, patients with events, %", "result": 14, "unit": "%"}, {"measurement": "Mucosal inflammation, CTCAE grade 1, patients", "result": 4}, {"measurement": "Mucosal inflammation, CTCAE grade 2, patients", "result": 1}, {"measurement": "Mucosal inflammation, CTCAE grade 3, patients", "result": 0}, {"measurement": "Mucosal inflammation, CTCAE grade 4, patients", "result": 0}, {"measurement": "Mucosal inflammation, patients with events, %", "result": 23, "unit": "%"}, {"measurement": "Myalgia, CTCAE grade 1, patients", "result": 8}, {"measurement": "Myalgia, CTCAE grade 2, patients", "result": 1}, {"measurement": "Myalgia, CTCAE grade 3, patients", "result": 1}, {"measurement": "Myalgia, CTCAE grade 4, patients", "result": 0}, {"measurement": "Myalgia, patients with events, %", "result": 45, "unit": "%"}, {"measurement": "Nasopharyngitis, CTCAE grade 1, patients", "result": 6}, {"measurement": "Nasopharyngitis, CTCAE grade 2, patients", "result": 0}, {"measurement": "Nasopharyngitis, CTCAE grade 3, patients", "result": 0}, {"measurement": "Nasopharyngitis, CTCAE grade 4, patients", "result": 0}, {"measurement": "Nasopharyngitis, patients with events, %", "result": 27, "unit": "%"}, {"measurement": "Nausea, CTCAE grade 1, patients", "result": 9}, {"measurement": "Nausea, CTCAE grade 2, patients", "result": 1}, {"measurement": "Nausea, CTCAE grade 3, patients", "result": 0}, {"measurement": "Nausea, CTCAE grade 4, patients", "result": 0}, {"measurement": "Nausea, patients with events, %", "result": 45, "unit": "%"}, {"measurement": "Neoplasms benign, malignant and unspecified (including cysts and polyps), patients with events, %", "result": 14, "unit": "%"}, {"measurement": "Nervous system disorders, patients with events, %", "result": 95, "unit": "%"}, {"measurement": "Neutropenia, CTCAE grade 1, patients", "result": 0}, {"measurement": "Neutropenia, CTCAE grade 2, patients", "result": 0}, {"measurement": "Neutropenia, CTCAE grade 3, patients", "result": 2}, {"measurement": "Neutropenia, CTCAE grade 4, patients", "result": 4}, {"measurement": "Neutropenia, patients with events, %", "result": 27, "unit": "%"}, {"measurement": "Oedema peripheral, CTCAE grade 1, patients", "result": 6}, {"measurement": "Oedema peripheral, CTCAE grade 2, patients", "result": 2}, {"measurement": "Oedema peripheral, CTCAE grade 3, patients", "result": 0}, {"measurement": "Oedema peripheral, CTCAE grade 4, patients", "result": 0}, {"measurement": "Oedema peripheral, patients with events, %", "result": 36, "unit": "%"}, {"measurement": "Oedema, CTCAE grade 1, patients", "result": 4}, {"measurement": "Oedema, CTCAE grade 2, patients", "result": 0}, {"measurement": "Oedema, CTCAE grade 3, patients", "result": 1}, {"measurement": "Oedema, CTCAE grade 4, patients", "result": 0}, {"measurement": "Oedema, patients with events, %", "result": 23, "unit": "%"}, {"measurement": "Peripheral sensory neuropathy, CTCAE grade 1, patients", "result": 6}, {"measurement": "Peripheral sensory neuropathy, CTCAE grade 2, patients", "result": 4}, {"measurement": "Peripheral sensory neuropathy, CTCAE grade 3, patients", "result": 3}, {"measurement": "Peripheral sensory neuropathy, CTCAE grade 4, patients", "result": 0}, {"measurement": "Peripheral sensory neuropathy, patients with events, %", "result": 59, "unit": "%"}, {"measurement": "Pollakiuria, CTCAE grade 1, patients", "result": 0}, {"measurement": "Pollakiuria, CTCAE grade 2, patients", "result": 0}, {"measurement": "Pollakiuria, CTCAE grade 3, patients", "result": 1}, {"measurement": "Pollakiuria, CTCAE grade 4, patients", "result": 0}]}
